Test results: ChEMBL document CHEMBL4028844, “Targeting the Receptor for Advanced Glycation Endproducts (RAGE): A Medicinal Chemistry Perspective” (J Med Chem, 2017)

Columns and labels:
[1] = Cytotoxicity against mouse HT22 cells assessed as cell survival at 10 uM after 18 hrs by MTT assay relative to control; format: cell-based, HT-22; conditions: read-out: Survival
[2] = biological target: T1, Advanced glycosylation end product-specific receptor (Homo sapiens, UniProt Q15109); assay: Inhibition of amyloid beta binding to biotin-labeled human RAGE domain V at 20 uM after 60 mins by ELISA relative to cotrol
T1 sequence (Q15109 whole entry, the tested form may be a part): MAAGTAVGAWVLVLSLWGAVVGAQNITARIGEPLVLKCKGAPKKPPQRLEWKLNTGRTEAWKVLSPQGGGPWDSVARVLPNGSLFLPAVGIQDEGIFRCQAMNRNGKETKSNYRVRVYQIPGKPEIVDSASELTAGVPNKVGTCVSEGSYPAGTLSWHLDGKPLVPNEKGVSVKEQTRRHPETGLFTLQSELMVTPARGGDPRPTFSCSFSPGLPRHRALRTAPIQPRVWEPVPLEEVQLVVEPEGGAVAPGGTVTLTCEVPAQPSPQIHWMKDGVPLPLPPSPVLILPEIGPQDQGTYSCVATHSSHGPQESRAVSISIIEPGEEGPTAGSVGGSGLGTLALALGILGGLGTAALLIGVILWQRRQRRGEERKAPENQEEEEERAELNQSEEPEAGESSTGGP

[3] = biological target: T1, Advanced glycosylation end product-specific receptor; assay: Binding affinity to human RAGE cytoplasmic domain by tryptophan fluorescence assay
[4] = biological target: T1, Advanced glycosylation end product-specific receptor; assay: Inhibition of […] binding to RAGE (unknown origin) by ELISA
[5] = biological target: T1, Advanced glycosylation end product-specific receptor; assay: Inhibition of CML binding to RAGE (unknown origin) by ELISA
[6] = biological target: T1, Advanced glycosylation end product-specific receptor; assay: Inhibition of amyloid beta binding to RAGE (unknown origin) by ELISA
[7] = biological target: T1, Advanced glycosylation end product-specific receptor; assay: Inhibition of amyloid beta binding to human RAGE […] expressed in HEK293 cells after 10 mins by MST assay; format: cell-based
[8] = biological target: T1, Advanced glycosylation end product-specific receptor; assay: Binding affinity to human C-terminal His-tagged RAGE domain V (24 to 125 residues) expressed in Escherichia coli BL21(DE3) by tryptophan fluorescence assay
[9] = biological target: T1, Advanced glycosylation end product-specific receptor; assay: Displacement of [I125]amyloid beta (1 to 40) from human RAGE domain V expressed in CHO cells; format: cell-based
[10] = biological target: T1, Advanced glycosylation end product-specific receptor; assay: Inhibition of HMGB1 binding to human RAGE domain V expressed in CHO cells; format: cell-based
[11] = biological target: T1, Advanced glycosylation end product-specific receptor; assay: Inhibition of […] binding to human RAGE domain V expressed in CHO cells; format: cell-based
[12] = biological target: Advanced glycosylation end product-specific receptor (Rattus norvegicus, UniProt Q63495); assay: Binding affinity to Wistar rat His-tagged RAGE domain VC1 expressed in Escherichia coli by fluorescence titration method
Chain of Advanced glycosylation end product-specific receptor (Rattus norvegicus, UniProt Q63495) (Q63495 whole entry, the tested form may be a part): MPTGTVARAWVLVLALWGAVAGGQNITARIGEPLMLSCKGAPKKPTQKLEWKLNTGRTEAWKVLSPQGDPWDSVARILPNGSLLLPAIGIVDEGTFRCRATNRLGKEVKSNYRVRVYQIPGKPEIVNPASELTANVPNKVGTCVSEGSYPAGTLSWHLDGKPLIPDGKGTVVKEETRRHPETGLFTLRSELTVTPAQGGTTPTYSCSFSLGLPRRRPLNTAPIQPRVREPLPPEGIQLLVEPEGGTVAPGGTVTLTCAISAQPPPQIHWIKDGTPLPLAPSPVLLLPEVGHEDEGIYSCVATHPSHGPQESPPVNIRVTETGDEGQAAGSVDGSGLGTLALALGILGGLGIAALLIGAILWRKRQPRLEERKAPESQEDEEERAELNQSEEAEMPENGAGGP

[13] = biological target: T1, Advanced glycosylation end product-specific receptor; assay: Binding affinity to human His-tagged RAGE domain VC1 expressed in Escherichia coli by fluorescence titration method

SMILES: CCCCOc1cc(OCCCN(CC)CC)ccc1NC(=O)c1cc(-c2ccc(Oc3ccc(F)cc3)cc2)nn1C
- viability at 18 h, 10 µM [1]: 10.3%

SMILES: CCN(CC)CCOc1ccc(OC)cc1NC(=O)c1nc(-c2ccc(F)cc2)cc(-c2ccc(F)cc2)n1
- viability at 18 h, 10 µM [1]: 100%
- inhibition [2]: > 4%

SMILES: Cc1nc2ccccc2n1CC(O)Cn1c2ccccc2c2ccccc21 (stereo unspecified)
- Kd [3]: 0.001 µM

SMILES: Cc1c(Cl)cccc1NC(=O)CNC(=O)c1ccccc1F
- Kd [3]: 0.032 µM

SMILES: CCN(CC)CCOc1cccc(Nc2nc(-c3ccc(Cl)cc3)cc(-c3ccc(Cl)cc3)n2)c1
- viability at 18 h, 10 µM [1]: 37.3%

SMILES: CCCCOc1cc(OCCCN(CC)CC)ccc1NC(=O)C(CC1CCN(Cc2ccccc2)CC1)NC(=O)OCC1c2ccccc2-c2ccccc21 (stereo unspecified)
- IC50 [4]: < 0.5 µM
- IC50 [5]: < 0.5 µM
- IC50 [6]: < 0.5 µM

SMILES: O=C1CCC[C@@H]2[C@H]3CCCN4CCC[C@@H](CN12)[C@@H]34 [MATRINE]
- Kd [7]: 24000 µM

SMILES: COC(=O)c1cc(O)c(O)cc1NC(=O)C1Oc2ccccc2OC1C (stereo unspecified)
- Kd [3]: 0.002 µM

SMILES: COc1cc(SC)ccc1C(=O)Nc1cccc(C)n1
- Kd [3]: 0.006 µM

SMILES: CC1NC(NCCC[C@H](N)C(=O)O)=NC1=O (stereo partly specified)
- Kd [8]: 0.03 to 0.04 µM

SMILES: O=C(c1ccc(Cl)cc1)N(Cc1ccccc1)C1CCCCC1
- Ki [9]: 0.025 µM
- Ki [10]: 0.148 µM
- Ki [11]: 0.23 µM

SMILES: O=C(O)c1cccnc1C(=O)O [QUINOLINIC ACID]
- Kd [12]: 0.043 µM
- Kd [13]: 0.043 µM

SMILES: CCCCn1c([C@@H](Cc2ccc(OCCc3ccc(Cl)cc3)cc2)NC(=O)OC(C)(C)C)nc2cc(OCCCN(CC)CC)ccc21
- IC50 [4]: < 0.5 µM
- IC50 [5]: < 4 µM
- IC50 [6]: < 0.5 µM
